Experimental data reported in EP4810052A2, “HCRHR2 SELECTIVE POLYPEPTIDES” (Gubra A/S, priority 2023, dated 2026).
Starred links: 1 amine or outer side, 2 acyl side, 3 side chain; linkers in the order of their positions; H or OH if unused. Non-standard residues stand in square brackets, D forms with d. Residues, ends and D or L forms follow the SMILES beside them. Groups on a side chain read outwards from the residue. *: point of attachment. C20 diacid = O=C(O)CCCCCCCCCCCCCCCCCCC(=O)*; γGlu = O=C(O)[C@H](CCC(=O)[*:2])N[*:1]; NMeI = CC[C@H](C)[C@H](NC)C(=O)O; AEEA = NCCOCCOCC(=O)O

Assays:
[1] = Thioflavin T fibril formation assay of purified peptides; assay type: physicochemical; design: key: Amyloid fibril formation detected by an increase in ThT fluorescence was denoted with "Yes"; samples without increasing ThT fluorescence hence not forming amyloid fibrils were denoted "No"
How it was run: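 Fibril formation read as rising ThT emission at 480 nm (450 nm excitation), 4 µM ThT, over 96 h at 40°C with alternating 5-min rest and 700 rpm shaking cycles, in triplicate. Samples were 200 µM compound in 50 mM phosphate at various pH values, or co-formulated at 200 µM in semaglutide product at pH 7.4.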

[2] = biological target: T1, rCRHR2 (Rattus norvegicus, UniProt P47866); assay: cAMP potency, transiently transfected CHO-K1 cells, rCRHR2; assay type: cell-based; details: transiently transfected CHO-K1, average n=3; read-out: Transient cell system EC50 (nM) rCRHR 2
T1 construct: DYK (FLAG); host or cells: CHO-K1, transiently transfected
T1 sequence (P47866 whole entry): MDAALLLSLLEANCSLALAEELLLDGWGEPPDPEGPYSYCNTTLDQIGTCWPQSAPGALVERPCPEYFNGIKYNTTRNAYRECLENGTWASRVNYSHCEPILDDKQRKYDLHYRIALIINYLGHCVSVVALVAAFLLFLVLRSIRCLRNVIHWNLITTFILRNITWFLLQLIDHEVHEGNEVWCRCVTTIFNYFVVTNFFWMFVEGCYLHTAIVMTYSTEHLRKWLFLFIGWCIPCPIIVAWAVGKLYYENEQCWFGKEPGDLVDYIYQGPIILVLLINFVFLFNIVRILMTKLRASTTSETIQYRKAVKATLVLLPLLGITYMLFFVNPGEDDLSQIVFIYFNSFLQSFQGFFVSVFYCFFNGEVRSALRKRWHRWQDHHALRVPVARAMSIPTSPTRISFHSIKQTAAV
Procedure: (§1) Selected peptides were tested for potency on different species (mouse, rat, porcine) using transiently transfected CHO-K1 cells using the general procedure.

[3] = PK in rats; assay type: in vivo; design: T½ / MRT: unit not given here; details: for half-life: read-out: T½ (converted)
How it was run: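 Lean male Sprague Dawley rats (n = 3 per group) got a two-peptide combination at 50 nmol/kg IV and SC. Plasma was sampled from 0.17 to 96 h post dose and analysed by LC-MSMS. PK parameters came from non-compartmental analysis.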

[4] = biological target: T2, mCRHR2 (Mus musculus, UniProt Q60748); assay: cAMP potency, transiently transfected CHO-K1 cells, mCRHR2; assay type: cell-based; details: transiently transfected CHO-K1, average n=3; read-out: Transient cell system EC50 (nM) mCRH R2
T2 construct: DYK (FLAG); host or cells: CHO-K1, transiently transfected
T2 sequence (Q60748 1-431 isoform Q60748-2): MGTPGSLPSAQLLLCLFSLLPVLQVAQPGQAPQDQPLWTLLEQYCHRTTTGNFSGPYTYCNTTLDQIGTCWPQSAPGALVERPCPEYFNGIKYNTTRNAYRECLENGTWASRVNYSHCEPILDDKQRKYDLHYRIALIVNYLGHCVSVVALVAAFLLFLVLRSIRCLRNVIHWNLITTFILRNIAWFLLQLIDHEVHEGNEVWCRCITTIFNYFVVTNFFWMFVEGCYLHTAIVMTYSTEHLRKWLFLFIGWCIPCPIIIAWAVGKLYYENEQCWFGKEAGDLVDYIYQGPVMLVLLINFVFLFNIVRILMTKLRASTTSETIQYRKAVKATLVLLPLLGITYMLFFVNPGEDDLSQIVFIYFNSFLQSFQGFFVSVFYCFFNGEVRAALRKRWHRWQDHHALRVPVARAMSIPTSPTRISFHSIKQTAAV
Procedure: as §1

[5] = tested on: pCRHR2; assay: cAMP potency, transiently transfected CHO-K1 cells, pCRHR2; assay type: cell-based, pig; details: transiently transfected CHO-K1, average n=3; read-out: Transient cell system EC50 (nM) pCR HR2
Procedure: as §1

[6] = PK in mice; assay type: in vivo; design: T½ / MRT: unit: h; details: for half-life: read-out: T½ (converted)
How it was run: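 Male NMRI/RjHan lean mice, about 8 weeks old after acclimatization, got one peptide IV and another SC at 15 or 50 nmol/kg. Sparse plasma sampling (3 mice per timepoint) ran from 0.17 to 96 h post-dose. LC-MS/MS quantified plasma levels, with parameters from non-compartmental analysis.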

[7] = Chemical stability of purified peptides (RP-UHPLC main peak purity loss); assay type: physicochemical
How it was run: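 Purity loss is the drop in RP-UHPLC main-peak area fraction (215 nm detection, C8 column at 50 °C) from time zero to day 14 and/or day 28 at 40 °C. Samples held roughly 1.0 mg/ml peptide in 50 mM phosphate, pH 7.5, with other pH targets also tested.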

[8] = male, Sprague Dawley (RJHan:SD), in vivo, iv, Rat, 50 nmol/kg i.v.
[9] = male, Sprague Dawley (RJHan:SD), in vivo, sc, Rat, 50 nmol/kg s.c.
[10] = male, NMRI/RjHan, in vivo, iv, Mouse, 15 nmol/kg i.v.
[11] = male, NMRI/RjHan, in vivo, sc, Mouse, 15 nmol/kg s.c.

CC[C@H](C)[C@H](NC)C(=O)N[C@H](C(=O)N[C@@H](CC(C)C)C(=O)N[C@@H](CO)C(=O)N[C@@H](CC(C)C)C(=O)N[C@@H](CC(=O)O)C(=O)N[C@H](C(=O)N1CCC[C@H]1C(=O)N[C@H](C(=O)NCC(=O)N[C@@H](CC(C)C)C(=O)N[C@@H](CC(C)C)C(=O)N[C@@H](CCC(N)=O)C(=O)N[C@H](C(=O)N[C@@H](CC(C)C)C(=O)N[C@@H](CC(C)C)C(=O)N[C@@H](CCC(=O)O)C(=O)N[C@@H](CCC(N)=O)C(=O)N[C@@H](C)C(=O)N[C@@H](CCCNC(=N)N)C(=O)N[C@@H](C)C(=O)N[C@@H](CCCNC(=N)N)C(=O)N[C@@H](C)C(=O)N[C@@H](C)C(=O)N[C@@H](CCCNC(=N)N)C(=O)N[C@@H](CCC(=O)O)C(=O)N[C@@H](CCC(N)=O)C(=O)N[C@@H](C)C(=O)N[C@H](C(=O)N[C@@H](CCCCNC(=O)COCCOCCNC(=O)COCCOCCNC(=O)CC[C@H](NC(=O)CC[C@H](NC(=O)CCCCCCCCCCCCCCCCCCC(=O)O)C(=O)O)C(=O)O)C(=O)N[C@@H](CC(N)=O)C(=O)N[C@@H](C)C(=O)N[C@@H](CCC(=O)O)C(=O)N[C@H](C(=O)N[C@@H](CC(C)C)C(=O)N[C@@H](C)C(=O)N[C@@H](CCC(=O)O)C(=O)N[C@H](C(N)=O)C(C)C)[C@@H](C)CC)[C@@H](C)O)[C@@H](C)CC)[C@@H](C)CC)C(C)C)C(C)C [SEQ ID NO: 6] (H-[NMeI]VLSLDVPIGLLQILLEQARARAAREQATK([AEEA-AEEA-γGlu-γGlu-C20 diacid])NAEILAEV-NH2)
Amyloid fibril formation + semaglutide (Ozempic®), pH 7.4 ([1]; 200 µM compound dissolved in semaglutide drug product, pH 7.4, listed as None = drug product alone): No | Amyloid fibril formation pH 7.0 ([1]; 200 µM in 50 mM phosphate buffer, pH 7.0): No | Amyloid fibril formation pH 7.5 ([1]; 200 µM in 50 mM phosphate buffer, pH 7.5): No | Amyloid fibril formation pH 8.0 ([1]; 200 µM in 50 mM phosphate buffer, pH 8.0): No | Fibrillation (pH 7.5) ([1]; pH 7.5, ThT assay): No | EC50 [2]: 0.13 nM | MRT ([3]; Rat): 7.4 | T½ ([3]; Rat): 6.1 | clearance [3, 8]: 0.15 mL/min/kg | half-life [3, 8]: 6.1 h | Cmax [3, 9]: 0.07 µM | Tmax [3, 9]: 24 h | half-life [3, 9]: 8.4 h | bioavailability ([3]; male, Sprague Dawley, rat, in vivo, sc): 35% | EC50 [4]: 0.0043 nM | Solubility pH 6.5 (mg/ml) (pH 6.5): 21.1 mg/ml | Solubility pH 7.0 (mg/mL) (pH 7): 20.0 mg/mL | Solubility pH 7.5 (mg/mL) (pH 7.5): 18.7 mg/mL | Solubility pH 7.5 + phenol (mg/mL) (pH 7.5): 18.1 mg/mL | EC50 [5]: 0.03 nM | MRT ([6]; Mouse): 16 | T½ ([6]; Mouse): 14.7 | bioavailability ([6]; male, NMRI, mouse, in vivo, sc): 78% | clearance [6, 10]: 0.055 mL/min/kg | half-life [6, 10]: 14.7 h | Cmax [6, 11]: 0.09 µM | Tmax [6, 11]: 24 h | half-life [6, 11]: 16 h | Purity loss (RP-UPLC analysis) T14-T0 (%) ([7]; pH 7.0, 40°C, 14 days): -1.8% | Purity loss (RP-UPLC analysis) T28-T0 (%) ([7]; pH 7.0, 40°C, 28 days): -2.0% | Purity loss (RP-UPLC analysis) T14-T0 (%) ([7]; pH 7.5, 40°C, 14 days): -1.1% | Chemical stability at pH 7.5 after 14 days at 40°C (% degradation) ([7]; pH 7.5, 40°C, 14 days, first value of cell): -1.0% | Purity loss (RP-UPLC analysis) T28-T0 (%) ([7]; pH 7.5, 40°C, 28 days): -2.6% | Chemical stability at pH 7.5 after 28 days at 40°C (% degradation) ([7]; pH 7.5, 40°C, 28 days, second value of cell): -3.5% | Purity loss (RP-UPLC analysis) T14-T0 (%) ([7]; pH 8.0, 40°C, 14 days): -3.1% | Purity loss (RP-UPLC analysis) T28-T0 (%) ([7]; pH 8.0, 40°C, 28 days): -7.1%
